Experiments:
[1] = biological target: T1, recombinant human ALK5 (TGF-βR1) protein (Homo sapiens, UniProt P36897); test: Biochemical ALK5 (TGF-βR1) assay to measure pKi (LANCE Ultra ULight kinase assay); settings: apparent pKi from pIC50 by Cheng-Prusoff, read-out: ALK5 pKi (converted)
T1 construct: purchased Life Technologies PR9075A
T1 sequence (P36897 34-503): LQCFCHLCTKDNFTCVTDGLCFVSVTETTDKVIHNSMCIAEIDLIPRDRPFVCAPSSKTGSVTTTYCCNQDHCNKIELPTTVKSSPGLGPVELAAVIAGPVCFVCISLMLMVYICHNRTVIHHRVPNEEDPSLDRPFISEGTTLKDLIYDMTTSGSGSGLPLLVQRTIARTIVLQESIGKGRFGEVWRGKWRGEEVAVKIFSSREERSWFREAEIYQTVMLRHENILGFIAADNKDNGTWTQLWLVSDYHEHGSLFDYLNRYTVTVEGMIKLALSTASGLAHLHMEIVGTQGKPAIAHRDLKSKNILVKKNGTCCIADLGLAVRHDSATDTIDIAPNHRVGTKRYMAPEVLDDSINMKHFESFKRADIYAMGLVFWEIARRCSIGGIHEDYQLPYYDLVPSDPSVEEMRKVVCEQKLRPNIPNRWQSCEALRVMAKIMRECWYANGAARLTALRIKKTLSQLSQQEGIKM
In short: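 After a 60 min room-temperature preincubation of ALK5 with compound, phosphorylation proceeds 60 min at 37 °C on ATP addition (125 μM as 5× stock). Detection: Eu-labelled phospho-Thr1342 Topo IIα antibody in EDTA buffer, pH 7.0; emission 665 nm.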

[2] = test system: TGF-β-stimulated SMAD3 phosphorylation in BEAS-2B cells; test: Cellular ALK5 potency assay, inhibition of TGF-β stimulated pSMAD3 formation in BEAS-2B cells; type: cell-based; settings: Homo sapiens; inhibition of TGF-β stimulated pSMAD3 formation, BEAS-2B cells; read-out: BEAS2B pIC50 (converted)
In short: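 AlphaLISA pSMAD3 read-out, beads incubated overnight. Human BEAS-2B cells: 1 h compound preincubation (37 °C, 5% CO2), then 30 min TGF-β at 10 ng/mL final, immediate lysis. Values are pIC50 relative to stimulated, compound-free baseline.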

SMILES	Ki [1] [nM]	IC50 [2] [nM]
CCN1CCC(N(C)c2cnc3ccc(-c4c[nH]nc4-c4cccc(C)n4)nc3c2)CC1 [Compound 662, N-(1-ethyl-4-piperidyl)-N-methyl-6-[3-(6-methyl-2-pyridyl)-1H-pyrazol-4-yl]-1,5-naphthyridin-3-amine]	0.0398 to 0.316	25.1 to 158
Cc1cccc(-c2nnn(C)c2-c2ccc3ncc(NCCN4CCN(C(C)C)CC4)cc3c2)n1 [Compound 244, N-[2-(4-isopropylpiperazin-1-yl)ethyl]-6-[3-methyl-5-(6-methyl-2-pyridyl)triazol-4-yl]quinolin-3-amine]	0.0398 to 0.316	25.1 to 158
Cc1cccc(-c2[nH]cnc2-c2ccc3nccc(C(=O)O[C@H]4C[C@H](N)C4)c3c2)n1 [Compound 1107, (3-aminocyclobutyl) 6-[5-(6-methyl-2-pyridyl)-1H-imidazol-4-yl]quinoline-4-carboxylate]	0.398 to 3.16	25.1 to 158
Cc1cccc(-c2n[nH]cc2-c2ccc3ncc(-c4ccn(C)n4)cc3n2)n1 [Compound 692, 7-(1-methylpyrazol-3-yl)-2-[3-(6-methyl-2-pyridyl)-1H-pyrazol-4-yl]-1,5-naphthyridine]	< 0.0316	< 20
Cc1cccc(-c2n[nH]cc2-c2ccc3ncc(NC(=O)CN4CCN(C(C)C)CC4)cc3n2)n1 [Compound 625, 2-(4-isopropylpiperazin-1-yl)-N-[6-[3-(6-methyl-2-pyridyl)-1H-pyrazol-4-yl]-1,5-naphthyridin-3-yl]acetamide]	0.0398 to 0.316	25.1 to 158
CCOC(=O)c1c(-c2cccc(F)c2)cnc2ccc(-c3c[nH]nc3-c3cccc(C)n3)nc12 [Compound 859, ethyl 3-(3-fluorophenyl)-6-[3-(6-methyl-2-pyridyl)-1H-pyrazol-4-yl]-1,5-naphthyridine-4-carboxylate]	0.398 to 3.16	200 to 1260
CNCCn1cc(-c2cnc3ccc(-c4c(-c5cccc(C)n5)nnn4Cc4ccccc4)cc3c2)cn1 [Compound 498, 2-[4-[6-[3-benzyl-5-(6-methyl-2-pyridyl)triazol-4-yl]-3-quinolyl]pyrazol-1-yl]-N-methyl-ethanamine]	0.0398 to 0.316	25.1 to 158
CNCc1ccnc2ccc(-c3c[nH]nc3-c3cccc(C)n3)cc12 [Compound 549, N-methyl-1-[6-[3-(6-methyl-2-pyridyl)-1H-pyrazol-4-yl]-4-quinolyl]methanamine]	0.398 to 3.16	25.1 to 158
Cc1cccc(-c2n[nH]cc2-c2ccc3nccc(-c4cn[nH]c4)c3n2)n1 [Compound 834, 2-[3-(6-methyl-2-pyridyl)-1H-pyrazol-4-yl]-8-(1H-pyrazol-4-yl)-1,5-naphthyridine]	0.0398 to 0.316	< 20
Cc1cccc(-c2[nH]cnc2-c2ccc3ncc(C4=CC(C)(C)NC(C)(C)C4)cc3c2)n1 [Compound 117, 6-[5-(6-methyl-2-pyridyl)-1H-imidazol-4-yl]-3-(2,2,6,6-tetramethyl-1,3-dihydropyridin-4-yl)quinoline]	0.398 to 3.16	25.1 to 158
CCOC(=O)CCc1cnc2ccc(-c3c[nH]nc3-c3cccc(C)n3)nc2c1 [Compound 499, ethyl 3-[6-[3-(6-methyl-2-pyridyl)-1H-pyrazol-4-yl]-1,5-naphthyridin-3-yl]propanoate]	0.0398 to 0.316	25.1 to 158
CCOc1nc(-c2ccc3ncc(Br)cc3c2)c(-c2cccc(C)n2)[nH]1 [Compound 1185, 3-bromo-6-[2-ethoxy-5-(6-methyl-2-pyridyl)-1H-imidazol-4-yl]quinoline]	0.398 to 3.16	25.1 to 158
Cc1cccc(-c2[nH]cnc2-c2ccc3ncc(C(=O)OCCCC4CNC4)cc3c2)n1 [Compound 1090, 3-(azetidin-3-yl)propyl 6-[5-(6-methyl-2-pyridyl)-1H-imidazol-4-yl]quinoline-3-carboxylate]	0.0398 to 0.316	200 to 1260
Cc1cccc(-c2n[nH]cc2-c2ccc3ncc(-c4cc(C)nn4C)cc3n2)n1 [Compound 596, 7-(2,5-dimethylpyrazol-3-yl)-2-[3-(6-methyl-2-pyridyl)-1H-pyrazol-4-yl]-1,5-naphthyridine]	< 0.0316	< 20
Cc1cccc(-c2n[nH]cc2-c2ccc3ncc(N4CCN5CCCC5C4)cc3n2)n1 (stereo not shown) [Compound 74, 7-(3,4,6,7,8,8a-hexahydro-1H-pyrrolo[1,2-a]pyrazin-2-yl)-2-[3-(6-methyl-2-pyridyl)-1H-pyrazol-4-yl]-1,5-naphthyridine]	< 0.0316	25.1 to 158
Cc1nc(-c2n[nH]cc2-c2ccc3ncc(-c4cccn(C)c4=O)cc3n2)ccc1F [Compound 674, 3-[6-[3-(5-fluoro-6-methyl-2-pyridyl)-1H-pyrazol-4-yl]-1,5-naphthyridin-3-yl]-1-methyl-pyridin-2-one]	0.0398 to 0.316	< 20
Cc1cccc(-c2n[nH]cc2-c2ccc3ncc(C(=O)NCCN4CCN(C(C)C)CC4)cc3n2)n1 [Compound 378, N-[2-(4-isopropylpiperazin-1-yl)ethyl]-6-[3-(6-methyl-2-pyridyl)-1H-pyrazol-4-yl]-1,5-naphthyridine-3-carboxamide]	0.0398 to 0.316	25.1 to 158
Cc1cccc(-c2c(-c3ccc4ncc(NCCN5CCN(C(C)C)CC5)cc4c3)nnn2Cc2ccccc2)n1 [Compound 351, 6-[1-benzyl-5-(6-methyl-2-pyridyl)triazol-4-yl]-N-[2-(4-isopropylpiperazin-1-yl)ethyl]quinolin-3-amine]	3.98 to 31.6	200 to 1260
COC(=O)[C@H]1CCCCN1CCNc1cnc2ccc(-c3nc[nH]c3-c3cccc(C)n3)cc2c1 [Compound 706, methyl (2R)-1-[2-[[6-[5-(6-methyl-2-pyridyl)-1H-imidazol-4-yl]-3-quinolyl]amino]ethyl]piperidine-2-carboxylate]	0.0398 to 0.316	25.1 to 158
Cc1cccc(-c2nnn(Cc3ccccc3)c2-c2ccc3ncc(N4CCCNCC4)cc3c2)n1 [Compound 411, 6-[3-benzyl-5-(6-methyl-2-pyridyl)triazol-4-yl]-3-(1,4-diazepan-1-yl)quinoline]	0.0398 to 0.316	25.1 to 158
Cc1cccc(-c2[nH]ncc2-c2ccc3nccc(C(=O)O[C@H]4CC[C@@H](N)CC4)c3c2)n1 [Compound 1199, (4-aminocyclohexyl) 6-[5-(6-methyl-2-pyridyl)-1H-pyrazol-4-yl]quinoline-4-carboxylate]	3.98 to 31.6	200 to 1260
Cc1cccc(-c2[nH]cnc2-c2ccc3ncc(-c4cc(C(=O)O[C@H]5CCNC5)cs4)cc3c2)n1 [Compound 885, [(3S)-pyrrolidin-3-yl] 5-[6-[5-(6-methyl-2-pyridyl)-1H-imidazol-4-yl]-3-quinolyl]thiophene-3-carboxylate]	< 0.0316	25.1 to 158
Cc1cccc(-c2[nH]cnc2-c2ccc3ncc(N4CCNCC4)cc3c2)n1 [Compound 412, 6-[5-(6-methyl-2-pyridyl)-1H-imidazol-4-yl]-3-piperazin-1-yl-quinoline]	0.0398 to 0.316	< 20
COc1nc(-c2ccc3ncc(Br)cc3c2)c(-c2cccc(C)n2)[nH]1 [Compound 1202, 3-bromo-6-[2-methoxy-5-(6-methyl-2-pyridyl)-1H-imidazol-4-yl]quinoline]	0.398 to 3.16	25.1 to 158
Cc1ccc(S(=O)(=O)NCC(=O)Nc2cnc3ccc(-c4c[nH]nc4-c4cccc(C)n4)nc3c2)cc1 [Compound 57, N-[6-[3-(6-methyl-2-pyridyl)-1H-pyrazol-4-yl]-1,5-naphthyridin-3-yl]-2-(p-tolylsulfonylamino)acetamide]	0.0398 to 0.316	25.1 to 158
Cc1cccc(-c2[nH]cnc2-c2ccc3ncc(-c4nc(C(=O)OCCN5CCNCC5)cs4)cc3c2)n1 [Compound 1145, 2-piperazin-1-ylethyl 2-[6-[5-(6-methyl-2-pyridyl)-1H-imidazol-4-yl]-3-quinolyl]thiazole-4-carboxylate]	0.0398 to 0.316	25.1 to 158
Cc1nc(-c2n[nH]cc2-c2ccc3ncc(-c4ncc5n4CCN5)cc3n2)ccc1F [Compound 174, 7-(2,3-dihydro-1H-imidazo[1,2-c]imidazol-5-yl)-2-[3-(5-fluoro-6-methyl-2-pyridyl)-1H-pyrazol-4-yl]-1,5-naphthyridine]	0.0398 to 0.316	200 to 1260
Cc1cccc(-c2nc3ccccn3c2-c2ccc3ncc(-c4cnc5n4CCNC5)cc3n2)n1 [Compound 524, 2-[2-(6-methyl-2-pyridyl)imidazo[1,2-a]pyridin-3-yl]-7-(5,6,7,8-tetrahydroimidazo[1,2-a]pyrazin-3-yl)-1,5-naphthyridine]	0.0398 to 0.316	25.1 to 158
Cc1cccc(-c2[nH]ncc2-c2ccc3ncc(C(=O)OCCC4CNC4)cc3c2)n1 [Compound 1204, 2-(azetidin-3-yl)ethyl 6-[5-(6-methyl-2-pyridyl)-1H-pyrazol-4-yl]quinoline-3-carboxylate]	< 0.0316	25.1 to 158
